Measurements as given in patent US20250129101A1, “Compound, Pharmaceutical Composition Comprising the Same and Method for Treating Cancer Using the Same” (NATIONAL TSING HUA UNIVERSITY, priority 2023, published 2025).

Tests used:
4T1 S1 cells = test: Colony formation assay, 4T1 S1 cells; type: cell-based, mouse; details: 1 μM 7S9 with 400 nM paclitaxel
Procedure: To assess the long-term survival of breast cancer cell lines following the treatment of KIF2C knockdown or inhibition, the cells trypsinized into single-cell suspension were homogeneously seeded in 6-well cell culture plates at a density of 5000 cells per dish, supplemented with 2× complete medium (50% 4×DMEM, 20% FBS, 2% penicillin-streptomycin, ddH2O, and 2× glutaMAX™), agarose (0.6% for bottom agar layer; 0.3% for top cell layer), ddH2O, and DMEM. After incubation for 24 hr, cells were treated with indicated drugs, such as DMSO, KIF2C inhibitors, or chemotherapy drugs, and then cultured at 37° C. incubator in an atmosphere of humidified air with 5% CO2 for a further 14-30 days. When the cell colonies grew to appropriate sizes, the culture mediums were replaced with PBS for washing. After that, the plates were stained with 10% crystal violet and analyzed using Image J.

[1] = tested on: MDA-MB-231 R, MDA-MB-231 S, 4T1 S1, R4, and R8 cells; test: Cell viability of indicated cell lines, DHTP or 7S9 for 72 hr; type: cell-based; details: Homo sapiens, range over MDA-MB-231 R, read-out: cytotoxicity IC50 values
Procedure: (§1) The cancer cells were cultured in a 96-well plate at a confluence of 1000-2000 cells/well with indicated drugs for specific days. When the time was up, the culture medium in the plate was aspirated and replaced with a prepared CellTiter-Glo reagent/DMEM mixture (1:1 mix of CellTiter-Glo reagent and serum-supplemented DMEM). After incubation for 10 min, the luminescence (proportional to the number of living cells) was measured with an ELISA plate reader to determine the cell viability.

4T1 R8 cells = test: Cell viability assay, 4T1 R8 cells; type: cell-based, mouse; details: with 400 nM paclitaxel, 72 hr
Procedure: MCF-7, MDA-MB-231, MDA-MB-468, Hs578T, 4T1, and HeLa cell lines stably expressing H2B-mCherry and eGFP-tubulin (kindly provided by Dr. Anthony A. Hyman, Max-Planck-Institute for Molecular Cell Biology and Genetics, Dresden, Germany) were cultured in high-glucose Dulbecco's Modified Eagle Medium (DMEM). SK-BR-3 cells were cultured in McCoy's Modified 5a Medium. Hs578T cells were cultured in high-glucose DMEM supplemented with an additional 0.01 mg/mL bovine insulin. […] All mentioned media were supplemented with 10% fetal bovine serum (Gibco) and 1% Penicillin/Streptomycin (Corning), and cells were incubated at 37° C. in a humidified atmosphere containing 5% CO2. HEK293 cells were cultured in HE300 medium (GMEP incorporated, Japan) and maintained in suspension culture with 125 rpm and 8% CO2.
as §1

KIF2C = molecular target: T1, KIF2C (Homo sapiens, UniProt Q99661); test: In vitro validation: KIF2C kinesin activity, malachite green-based phosphate colorimetric assay; type: biochemical
T1 construct: KIF2C (216-598 a.a.); 6xHis (C); made in house; host or cells: E. coli BL21 (DE3), pET-28a
T1 sequence (Q99661 216-598): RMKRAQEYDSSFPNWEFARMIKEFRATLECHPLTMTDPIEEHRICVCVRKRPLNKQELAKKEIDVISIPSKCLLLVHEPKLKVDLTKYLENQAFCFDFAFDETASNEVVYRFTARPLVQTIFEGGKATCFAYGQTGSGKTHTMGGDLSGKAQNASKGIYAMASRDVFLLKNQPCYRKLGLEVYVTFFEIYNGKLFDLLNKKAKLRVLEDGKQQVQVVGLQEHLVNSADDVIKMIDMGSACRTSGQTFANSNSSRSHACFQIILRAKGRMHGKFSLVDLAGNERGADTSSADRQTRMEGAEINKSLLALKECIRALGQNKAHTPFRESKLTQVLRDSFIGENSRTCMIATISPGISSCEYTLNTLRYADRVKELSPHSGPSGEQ
Outline: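 KIF2C sN+M construct (aa 216-598, C-terminal 6×His, E. coli-expressed) ATPase activity with microtubules from porcine brain tubulin or HEK293 (293Fs) cells in BRB80 (80 mM PIPES pH 6.8, 1 mM GTP, 10% DMSO), 37° C for 2 hr. Released phosphate detected by malachite green reagent, 10 min, A650.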

inhibitory effect against KIF2C (in words) (KIF2C; 50 μM (FIG. 4I)): selective inhibition against KIF2C | inhibition of KIF2C kinesin activity (in words) (KIF2C; 100 μM (FIG. 4B)): most potent inhibitor of KIF2C | EC50 (KIF2C; concentration that inhibits 50% of KIF2C activity): < 50 µM
SMILES: CCN1CCN(C(=O)COc2ccc(/C=c3\sc4n(c3=O)C(c3ccc(Cl)cc3)C(C(=O)OC(C)C)=C(C)N=4)cc2)CC1.O=C(O)/C=C\C(=O)O (stereo not shown) [7S9 (133), isopropyl (Z)-5-(4-chlorophenyl)-2-(4-(2-(4-ethylpiperazin-1-yl)-2-oxoethoxy)benzylidene)-7-methyl-3-oxo-2,3-dihydro-5H-thiazolo[3,2-a]pyrimidine-6-carboxylate maleate]
colony formation, combined treatment (in words) (4T1 S1 cells): did not further suppress colony formation | IC50 [1]: 4.9 to 8.6 µM | fold increase of cell sensitivity to 7S9 by paclitaxel (4T1 R8 cells): 8 fold | KIF2C activity in the presence of paclitaxel (in words) (KIF2C; 100 μM 7S9, 1 μM paclitaxel): could successfully inhibit KIF2C activity in the presence of paclitaxel
